Data as given in ChEMBL document CHEMBL1201862, “PubChem BioAssay data set” (2004).
The source made the active and inactive calls.

Tests used:
[1] = MC4R antagonists, dose response, counter-screen for LGR2 antagonist project, cell-based, plate reader, cherry pick (AID 743444); format: functional;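 note: transfected HEK 293 cells stimulated with alpha-MSH peptide; potency of inhibitors of the alpha-MSH evoked signal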
Aminopeptidase N = biological target: T1, Aminopeptidase N (Plasmodium falciparum FcB1/Columbia, UniProt O96935); experiment: P. falciparum M1AAP inhibitors, biochemical, fluorogenic H-Leu-NHMec substrate, 1536-well (AID 1445); set-up: species or system Plasmodium falciparum 3D7, 3D7
T1 sequence (O96935 whole entry): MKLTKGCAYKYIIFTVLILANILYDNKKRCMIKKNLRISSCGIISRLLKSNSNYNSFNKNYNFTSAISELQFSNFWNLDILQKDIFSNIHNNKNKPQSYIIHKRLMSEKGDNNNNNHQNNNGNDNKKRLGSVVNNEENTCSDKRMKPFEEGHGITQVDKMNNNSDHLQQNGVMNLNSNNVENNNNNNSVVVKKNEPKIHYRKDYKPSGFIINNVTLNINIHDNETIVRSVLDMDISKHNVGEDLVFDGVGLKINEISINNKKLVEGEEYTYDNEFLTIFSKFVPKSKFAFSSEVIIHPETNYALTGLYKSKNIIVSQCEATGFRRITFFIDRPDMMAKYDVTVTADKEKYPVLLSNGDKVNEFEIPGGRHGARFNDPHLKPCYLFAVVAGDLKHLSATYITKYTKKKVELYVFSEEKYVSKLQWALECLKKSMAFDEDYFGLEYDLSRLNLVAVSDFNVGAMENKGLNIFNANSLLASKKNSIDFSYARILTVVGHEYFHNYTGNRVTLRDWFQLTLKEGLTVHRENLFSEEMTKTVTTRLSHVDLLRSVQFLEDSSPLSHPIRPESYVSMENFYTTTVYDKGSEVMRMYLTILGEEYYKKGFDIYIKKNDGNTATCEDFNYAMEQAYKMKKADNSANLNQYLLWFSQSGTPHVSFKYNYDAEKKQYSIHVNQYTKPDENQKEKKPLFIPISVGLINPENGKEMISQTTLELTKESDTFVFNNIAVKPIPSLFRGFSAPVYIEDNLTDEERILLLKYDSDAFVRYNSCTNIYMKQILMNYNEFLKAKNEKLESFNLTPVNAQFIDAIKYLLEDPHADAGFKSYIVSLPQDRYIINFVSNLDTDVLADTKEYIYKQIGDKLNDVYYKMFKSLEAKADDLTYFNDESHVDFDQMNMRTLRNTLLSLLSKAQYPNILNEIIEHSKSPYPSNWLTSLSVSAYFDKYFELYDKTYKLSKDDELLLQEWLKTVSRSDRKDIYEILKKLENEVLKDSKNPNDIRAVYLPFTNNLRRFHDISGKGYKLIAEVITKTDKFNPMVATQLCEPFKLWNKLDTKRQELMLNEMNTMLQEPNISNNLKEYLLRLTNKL

[2] = biological target: T2, Microphthalmia-associated transcription factor (Homo sapiens, UniProt O75030); experiment: TRPM1 promoter luciferase signal decrease, dose response, MITF inhibitor project, cell-based, SK-MEL-5, cherry-picked, set 3 (AID 493073); format: functional
T2 sequence (O75030 whole entry): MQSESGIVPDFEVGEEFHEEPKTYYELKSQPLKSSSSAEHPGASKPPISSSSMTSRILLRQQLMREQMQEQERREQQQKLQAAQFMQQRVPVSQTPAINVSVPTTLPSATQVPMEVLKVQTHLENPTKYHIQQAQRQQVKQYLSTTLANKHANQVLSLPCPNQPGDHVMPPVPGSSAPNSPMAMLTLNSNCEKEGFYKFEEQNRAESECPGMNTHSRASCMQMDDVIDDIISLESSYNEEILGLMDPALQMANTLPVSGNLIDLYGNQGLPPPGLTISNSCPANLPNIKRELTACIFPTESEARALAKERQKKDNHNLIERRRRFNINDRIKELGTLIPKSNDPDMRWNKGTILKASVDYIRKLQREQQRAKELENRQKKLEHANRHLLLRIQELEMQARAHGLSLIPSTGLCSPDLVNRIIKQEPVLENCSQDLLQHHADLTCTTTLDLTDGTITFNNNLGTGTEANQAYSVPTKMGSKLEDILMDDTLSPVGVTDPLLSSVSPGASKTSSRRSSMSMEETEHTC

HeLa = experiment: HeLa cell cytotoxicity, dose response, cytotoxicity control, 24 h, cherry-picked samples (AID 504726); format: functional, cell-based; details: Homo sapiens;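 note: potency for cytotoxicity as loss of luminescence signal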
[3] = inhibitors of HIV Env-driven cell fusion, dose response, cherry-pick (AID 652057); format: functional, cell-based
[4] = HEK293 cell cytotoxicity, dose response, cytotoxicity control, plate reader, cherry-picked samples (AID 743446); format: functional, cell-based
[5] = biological target: FAD-linked sulfhydryl oxidase ALR (Homo sapiens, UniProt P55789); experiment: inhibitors of human ALR sulfhydryl oxidase, dose response, biochemical, H2O2 detection, luminescence, cherry-pick (AID 493248)
[6] = ZM109 Env clade C HIV-1 fusion inhibitors, dose response, HeLa effector, CEM target cells, luciferase, cherry-pick (AID 652058); format: functional, cell-based
[7] = non-specific cell cytotoxicity, dose response, cytotoxicity control for PAX8 inhibitor project, plate reader, dry powder samples (AID 743021); format: functional, cell-based
[8] = Luminescence-based counterscreen assay for KLF5 inhibitors: dose response cell-based high throughput screening assay to identify cytotoxic compounds using the IEC-6 intestinal epithelial cell line. [Related pubchem assays: 1700 (Primary screen.), 1834 (Confirmation screen.), 1858 (Summary AID.), 1905 (Counterscreen.)]; format: functional
[9] = off-target signal loss in HeLa-CEM21 co-culture – HeLa F-luc CTL cells, cherry-picked, counter-screen for HIV-1 Env fusion inhibitor project, dose response (AID 652040); format: functional, cell-based;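 note: potency for signal decrease marking cytotoxic or nonspecific inhibition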
Paired box protein Pax-8 = Paired box protein Pax-8 (Homo sapiens, UniProt Q06710); experiment: inhibitors of PAX8-driven TPO luciferase reporter, dose response, RMG-I cells, cherry-pick (AID 687027); format: functional, cell-based;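 note: luciferase reporter driven by Pax8 target thyroperoxidase promoter measured by SteadyGlo luminescence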
[10] = inhibitors of clade B AD8 Env fusion, dose response, cell-based, cherry-pick (AID 652062); format: functional;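 note: luciferase signal from cell-cell fusion driven by HIV-1 clade B AD8 Env; potency is for inhibitors of fusion seen as a drop in luminescence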
[11] = LGR2 antagonists, dose response, cell-based, HEK293, CRE-luciferase reporter, cherry pick, set 2 (AID 743343); format: functional;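 note: transfected cells were stimulated with diluted bursicon conditioned medium after compound addition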
[12] = biological target: T3, Dual specificity protein phosphatase 6 (Rattus norvegicus, UniProt Q64346);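 note: in vitro confirmatory secondary MKP-3 assay designed to detect irreversible or slow-binding inhibitors; recombinant His-tagged rat MKP-3 acting on the substrate OMFP; inhibitor potency from reduced phosphatase rate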
T3 sequence (Q64346 whole entry): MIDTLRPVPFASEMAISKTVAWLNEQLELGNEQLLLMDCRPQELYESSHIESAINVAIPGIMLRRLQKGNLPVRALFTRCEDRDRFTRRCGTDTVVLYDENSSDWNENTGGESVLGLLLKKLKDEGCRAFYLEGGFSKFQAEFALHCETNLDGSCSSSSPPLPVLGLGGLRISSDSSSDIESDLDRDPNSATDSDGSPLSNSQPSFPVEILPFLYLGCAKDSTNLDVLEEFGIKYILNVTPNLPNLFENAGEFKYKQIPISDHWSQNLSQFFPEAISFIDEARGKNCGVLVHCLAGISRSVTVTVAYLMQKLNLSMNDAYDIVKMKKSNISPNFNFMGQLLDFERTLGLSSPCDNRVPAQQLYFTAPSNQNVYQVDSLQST

Large T antigen = Large T antigen (Simian virus 40, UniProt P03070); format: functional, Betapolyomavirus macacae;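 note: Confirmatory-stage PubChem screen for compounds that inhibit SV40 T antigen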
[13] = biological target: T3, Dual specificity protein phosphatase 6; experiment: MKP-3 phosphatase inhibitors, primary screen, biochemical, rat enzyme, in vitro (AID 425)
[14] = biological target: Eukaryotic translation initiation factor 4E (Mus musculus, UniProt P63073); experiment: eIF4E–eIF4G protein interaction inhibitors, dose response, biochemical, TR-FRET (AID 855); format: functional;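 note: potency for disrupting eIF4E binding to eIF4GI seen as loss of FRET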
[15] = biological target: Induced myeloid leukemia cell differentiation protein Mcl-1 (Homo sapiens, UniProt Q07820); format: functional
[16] = biological target: Heat shock cognate 71 kDa protein (Homo sapiens, UniProt P11142); experiment: In Vitro Hsc70 Dose Response Fluorescence Polarization Assay. [Related pubchem assays: 1072 ]
[17] = biological target: Glyceraldehyde-3-phosphate dehydrogenase (Homo sapiens, UniProt P04406)
NS3 = NS3 (Hepatitis C virus, UniProt A3EZJ3); experiment: HCV NS3 helicase inhibitor potency, dose response, biochemical, fluorescence polarization, ChemBridge library (AID 743264)
[18] = biological target: T4, Tyrosine-protein phosphatase non-receptor type 7 (Homo sapiens, UniProt P35236); format: functional
T4 sequence (P35236 whole entry): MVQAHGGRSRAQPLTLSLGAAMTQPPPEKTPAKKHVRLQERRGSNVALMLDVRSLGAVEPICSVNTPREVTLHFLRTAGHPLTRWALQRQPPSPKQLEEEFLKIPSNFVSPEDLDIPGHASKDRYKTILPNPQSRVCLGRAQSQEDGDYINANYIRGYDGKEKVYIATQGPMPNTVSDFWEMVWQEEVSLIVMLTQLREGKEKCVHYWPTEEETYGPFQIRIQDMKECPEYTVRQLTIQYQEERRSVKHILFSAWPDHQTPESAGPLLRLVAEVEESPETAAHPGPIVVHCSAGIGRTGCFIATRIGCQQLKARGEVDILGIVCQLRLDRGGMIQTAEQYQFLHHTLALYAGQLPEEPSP

[19] = biological target: Heat shock 70 kDa protein 1A (Homo sapiens, UniProt P0DMV8); experiment: Hsp70 inhibitors, SAR follow-up, biochemical, fluorescence polarization (AID 1072)
[20] = biological target: T5, Heat shock factor protein 1 (Mus musculus, UniProt P38532); experiment: inhibition of MG132-induced HSE-luciferase signal, confirmation, cell-based, NIH3T3, luminescence, dose retest (AID 2382); format: functional;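 note: NIH3T3 fibroblasts with HSF1-driven luciferase reporter stressed by proteasome inhibitor MG132; luminescence from HSF1-driven luciferase expression after 8 hours of MG132 stress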
T5 sequence (P38532 whole entry): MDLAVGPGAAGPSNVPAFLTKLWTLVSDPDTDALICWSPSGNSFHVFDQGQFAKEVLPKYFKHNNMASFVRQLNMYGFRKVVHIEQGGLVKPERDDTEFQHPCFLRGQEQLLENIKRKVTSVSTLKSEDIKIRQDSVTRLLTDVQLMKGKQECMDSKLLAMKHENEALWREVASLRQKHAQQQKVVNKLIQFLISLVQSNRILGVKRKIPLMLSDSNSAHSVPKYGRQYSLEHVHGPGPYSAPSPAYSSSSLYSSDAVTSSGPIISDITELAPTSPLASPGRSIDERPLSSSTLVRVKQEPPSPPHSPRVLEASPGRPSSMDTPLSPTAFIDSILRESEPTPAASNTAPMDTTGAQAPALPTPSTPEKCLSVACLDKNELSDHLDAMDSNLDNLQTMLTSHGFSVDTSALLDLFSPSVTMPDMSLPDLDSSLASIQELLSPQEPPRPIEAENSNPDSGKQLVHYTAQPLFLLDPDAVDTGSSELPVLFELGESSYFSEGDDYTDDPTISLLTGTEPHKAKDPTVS

[21] = HEp-2 cell cytotoxicity, dose response, cytotoxicity control for RSV inhibitor project, HTS (AID 2410); format: functional; details: human respiratory syncytial virus

Sequence of Eukaryotic translation initiation factor 4E (P63073 whole entry): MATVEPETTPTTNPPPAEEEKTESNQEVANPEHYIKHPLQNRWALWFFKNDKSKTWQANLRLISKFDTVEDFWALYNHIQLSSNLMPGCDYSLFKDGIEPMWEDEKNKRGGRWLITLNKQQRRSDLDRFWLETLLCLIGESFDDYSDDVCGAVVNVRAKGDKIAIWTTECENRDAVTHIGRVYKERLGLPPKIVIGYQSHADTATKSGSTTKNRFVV
Sequence of Glyceraldehyde-3-phosphate dehydrogenase (P04406 whole entry): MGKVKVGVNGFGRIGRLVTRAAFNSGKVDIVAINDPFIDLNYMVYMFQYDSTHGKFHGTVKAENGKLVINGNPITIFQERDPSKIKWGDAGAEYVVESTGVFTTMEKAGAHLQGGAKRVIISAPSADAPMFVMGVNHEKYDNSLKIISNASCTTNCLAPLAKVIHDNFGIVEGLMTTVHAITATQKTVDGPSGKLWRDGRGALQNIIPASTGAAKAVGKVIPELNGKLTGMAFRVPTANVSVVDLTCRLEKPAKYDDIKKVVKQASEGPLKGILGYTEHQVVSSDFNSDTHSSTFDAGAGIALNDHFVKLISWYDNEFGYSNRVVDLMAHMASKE
Sequence of Heat shock 70 kDa protein 1A (P0DMV8 whole entry): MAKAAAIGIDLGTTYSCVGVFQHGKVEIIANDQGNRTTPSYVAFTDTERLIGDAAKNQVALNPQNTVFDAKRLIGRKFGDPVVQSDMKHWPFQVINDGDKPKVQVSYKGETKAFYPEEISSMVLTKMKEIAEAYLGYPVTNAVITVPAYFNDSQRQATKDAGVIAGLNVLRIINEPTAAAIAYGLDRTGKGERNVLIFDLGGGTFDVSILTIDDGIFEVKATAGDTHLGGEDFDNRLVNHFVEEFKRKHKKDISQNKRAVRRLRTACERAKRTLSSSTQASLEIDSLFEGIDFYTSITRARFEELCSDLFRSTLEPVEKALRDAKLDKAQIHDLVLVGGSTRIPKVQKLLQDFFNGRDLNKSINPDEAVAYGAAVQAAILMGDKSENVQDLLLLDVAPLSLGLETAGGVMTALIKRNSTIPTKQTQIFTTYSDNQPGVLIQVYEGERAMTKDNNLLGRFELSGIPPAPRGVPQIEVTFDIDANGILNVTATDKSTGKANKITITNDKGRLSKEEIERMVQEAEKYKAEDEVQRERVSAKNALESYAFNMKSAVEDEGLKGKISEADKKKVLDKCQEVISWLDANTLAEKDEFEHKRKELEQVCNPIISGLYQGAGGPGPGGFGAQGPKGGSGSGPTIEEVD
Sequence of Heat shock cognate 71 kDa protein (P11142 whole entry): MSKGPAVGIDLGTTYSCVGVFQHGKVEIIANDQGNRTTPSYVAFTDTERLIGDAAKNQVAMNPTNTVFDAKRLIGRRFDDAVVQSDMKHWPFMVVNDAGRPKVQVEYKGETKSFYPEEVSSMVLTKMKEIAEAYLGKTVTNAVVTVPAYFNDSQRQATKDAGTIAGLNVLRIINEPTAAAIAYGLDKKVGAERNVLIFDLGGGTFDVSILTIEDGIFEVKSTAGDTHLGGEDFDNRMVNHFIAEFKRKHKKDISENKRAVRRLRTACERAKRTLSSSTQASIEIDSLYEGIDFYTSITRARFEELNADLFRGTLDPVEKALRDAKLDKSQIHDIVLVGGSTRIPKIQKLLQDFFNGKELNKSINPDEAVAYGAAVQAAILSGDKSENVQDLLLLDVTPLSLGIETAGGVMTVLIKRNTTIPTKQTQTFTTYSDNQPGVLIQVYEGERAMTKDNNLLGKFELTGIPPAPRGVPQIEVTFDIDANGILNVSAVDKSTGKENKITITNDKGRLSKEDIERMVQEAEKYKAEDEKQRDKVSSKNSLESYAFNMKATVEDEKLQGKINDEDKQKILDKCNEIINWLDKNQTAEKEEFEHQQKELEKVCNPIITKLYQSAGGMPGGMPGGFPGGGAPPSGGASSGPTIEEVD
Sequence of Induced myeloid leukemia cell differentiation protein Mcl-1 (Q07820 whole entry): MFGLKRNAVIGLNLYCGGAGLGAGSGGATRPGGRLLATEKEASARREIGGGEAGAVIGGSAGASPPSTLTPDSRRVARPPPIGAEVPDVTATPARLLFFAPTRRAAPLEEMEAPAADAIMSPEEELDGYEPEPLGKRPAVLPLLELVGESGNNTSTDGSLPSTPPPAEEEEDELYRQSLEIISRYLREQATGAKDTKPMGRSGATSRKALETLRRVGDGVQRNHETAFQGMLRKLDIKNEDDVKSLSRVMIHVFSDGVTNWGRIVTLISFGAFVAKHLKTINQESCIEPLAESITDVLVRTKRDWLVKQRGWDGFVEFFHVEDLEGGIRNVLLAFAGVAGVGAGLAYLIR
Sequence of Paired box protein Pax-8 (Q06710 whole entry, the tested form may be a part): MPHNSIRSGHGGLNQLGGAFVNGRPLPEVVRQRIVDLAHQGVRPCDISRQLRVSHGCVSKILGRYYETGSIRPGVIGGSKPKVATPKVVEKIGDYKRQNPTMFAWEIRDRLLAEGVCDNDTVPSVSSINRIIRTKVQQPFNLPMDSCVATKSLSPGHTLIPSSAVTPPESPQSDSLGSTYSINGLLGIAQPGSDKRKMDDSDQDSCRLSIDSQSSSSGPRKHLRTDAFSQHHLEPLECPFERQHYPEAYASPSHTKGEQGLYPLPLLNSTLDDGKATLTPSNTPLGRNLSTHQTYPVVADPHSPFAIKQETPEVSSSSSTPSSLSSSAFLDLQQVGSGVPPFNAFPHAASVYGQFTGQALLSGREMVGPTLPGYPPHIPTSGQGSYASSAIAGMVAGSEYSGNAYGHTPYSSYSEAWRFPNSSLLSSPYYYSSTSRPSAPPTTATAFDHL
Sequence of FAD-linked sulfhydryl oxidase ALR (P55789 whole entry, the tested form may be a part): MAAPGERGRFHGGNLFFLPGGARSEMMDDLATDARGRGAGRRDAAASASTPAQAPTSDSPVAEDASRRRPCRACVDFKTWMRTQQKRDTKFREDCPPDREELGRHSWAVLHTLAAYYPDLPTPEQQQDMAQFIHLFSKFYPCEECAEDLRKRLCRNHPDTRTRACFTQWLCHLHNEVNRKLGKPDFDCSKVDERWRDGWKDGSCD
Sequence of Large T antigen (P03070 whole entry): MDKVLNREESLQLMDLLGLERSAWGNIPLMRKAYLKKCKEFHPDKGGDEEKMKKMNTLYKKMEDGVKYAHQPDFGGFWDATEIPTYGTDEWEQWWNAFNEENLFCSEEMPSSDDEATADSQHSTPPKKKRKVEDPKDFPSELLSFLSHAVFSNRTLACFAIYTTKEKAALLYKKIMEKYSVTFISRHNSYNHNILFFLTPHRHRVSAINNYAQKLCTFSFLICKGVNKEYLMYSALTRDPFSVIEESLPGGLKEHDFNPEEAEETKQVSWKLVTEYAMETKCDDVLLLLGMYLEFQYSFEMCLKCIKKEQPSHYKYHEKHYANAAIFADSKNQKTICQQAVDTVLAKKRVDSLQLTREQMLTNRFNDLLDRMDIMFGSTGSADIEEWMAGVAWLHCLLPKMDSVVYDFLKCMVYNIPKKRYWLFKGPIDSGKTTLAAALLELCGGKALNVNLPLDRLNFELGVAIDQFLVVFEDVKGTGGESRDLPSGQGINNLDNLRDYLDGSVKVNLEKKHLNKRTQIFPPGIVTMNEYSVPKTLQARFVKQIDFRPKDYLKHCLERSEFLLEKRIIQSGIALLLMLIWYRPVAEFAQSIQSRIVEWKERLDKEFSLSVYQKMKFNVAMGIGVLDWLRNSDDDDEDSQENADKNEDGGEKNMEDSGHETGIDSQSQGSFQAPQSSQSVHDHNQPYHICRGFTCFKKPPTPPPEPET
Sequence of NS3 (A3EZJ3 whole entry): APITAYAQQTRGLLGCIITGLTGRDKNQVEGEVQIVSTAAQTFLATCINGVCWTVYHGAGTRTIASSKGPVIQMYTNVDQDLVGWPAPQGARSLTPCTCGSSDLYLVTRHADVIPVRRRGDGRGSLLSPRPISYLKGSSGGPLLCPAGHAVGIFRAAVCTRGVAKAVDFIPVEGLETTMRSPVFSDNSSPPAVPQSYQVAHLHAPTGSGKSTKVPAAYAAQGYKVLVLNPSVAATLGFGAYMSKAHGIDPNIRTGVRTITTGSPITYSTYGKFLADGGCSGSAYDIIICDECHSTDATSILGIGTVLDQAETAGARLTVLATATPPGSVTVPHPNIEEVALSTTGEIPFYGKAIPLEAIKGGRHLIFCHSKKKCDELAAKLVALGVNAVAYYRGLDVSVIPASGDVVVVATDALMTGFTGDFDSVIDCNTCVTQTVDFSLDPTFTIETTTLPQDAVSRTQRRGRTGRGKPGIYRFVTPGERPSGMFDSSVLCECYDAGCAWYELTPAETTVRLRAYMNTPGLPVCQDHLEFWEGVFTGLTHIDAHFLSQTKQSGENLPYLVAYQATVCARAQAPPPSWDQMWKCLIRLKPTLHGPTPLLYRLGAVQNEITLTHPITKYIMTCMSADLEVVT

Nc1ccc(-c2nc3ccc(C(=O)O)cc3s2)cc1
active: AC50 [1] 0.649 µM | IC50 (Aminopeptidase N) 25.7 µM | AC50 [2] 0.866 µM | AC50 (HeLa) 313 µM | AC50 [3] 1.03 µM | AC50 [4] 48.6 µM | AC50 [5] 0.839 µM | AC50 [6] 4.57 µM | AC50 [7] 30.4 µM | AC50 [9] 1.91 µM | AC50 (Paired box protein Pax-8) 2.6 µM | AC50 [10] 1.6 µM | AC50 [11] 0.749 µM
> 39.8 µM (not active): IC50 [8]

Cc1ccc2c(c1)C1C=CCC1C(C(=O)O)N2 (configuration not stated)
active: IC50 [12] 8 µM | IC50 (Large T antigen) 9.1 µM | IC50 [14] 5.44 µM | IC50 [15] > 54 µM | IC50 [17] 70.7 µM | IC50 [18] 15.6 µM | IC50 [19] 4.77 µM
> 100 µM (not active): IC50 [16]
> 10 µM (not active): IC50 [13]
inactive: IC50 (NS3) 37.5 µM

COc1ccc(C(=O)N/C(=C\c2cccs2)c2nc3ccccc3[nH]2)cc1OC
> 195 µM (not active): EC50 [20]
active: IC50 (cells) 25.6 µM | CC50 [21] > 50 µM
